Test results: patent US10981926B2 (Janssen Pharmaceutica NV, priority 2016, dated 2021)

Key:
[1] = target: T1, wild-type Androgen Receptor (AR-wt) (Homo sapiens (Human), UniProt P10275); assay: LNCaP-AR-wt ANT reporter assay (antagonist mode); format: cell-based; conditions: for IC50 / LNCaP-AR-wt ANT pIC50: antagonist mode, pIC50 = −Log10(IC50 in Molar); for IC50: read-out: LNCaP-AR-wt ANT pIC50 (converted); for Emax: maximum % inhibition of R1881 control response over the tested concentration range, read-out: LNCaP-AR-wt ANT MAX % Inh
T1 sequence (P10275 whole entry): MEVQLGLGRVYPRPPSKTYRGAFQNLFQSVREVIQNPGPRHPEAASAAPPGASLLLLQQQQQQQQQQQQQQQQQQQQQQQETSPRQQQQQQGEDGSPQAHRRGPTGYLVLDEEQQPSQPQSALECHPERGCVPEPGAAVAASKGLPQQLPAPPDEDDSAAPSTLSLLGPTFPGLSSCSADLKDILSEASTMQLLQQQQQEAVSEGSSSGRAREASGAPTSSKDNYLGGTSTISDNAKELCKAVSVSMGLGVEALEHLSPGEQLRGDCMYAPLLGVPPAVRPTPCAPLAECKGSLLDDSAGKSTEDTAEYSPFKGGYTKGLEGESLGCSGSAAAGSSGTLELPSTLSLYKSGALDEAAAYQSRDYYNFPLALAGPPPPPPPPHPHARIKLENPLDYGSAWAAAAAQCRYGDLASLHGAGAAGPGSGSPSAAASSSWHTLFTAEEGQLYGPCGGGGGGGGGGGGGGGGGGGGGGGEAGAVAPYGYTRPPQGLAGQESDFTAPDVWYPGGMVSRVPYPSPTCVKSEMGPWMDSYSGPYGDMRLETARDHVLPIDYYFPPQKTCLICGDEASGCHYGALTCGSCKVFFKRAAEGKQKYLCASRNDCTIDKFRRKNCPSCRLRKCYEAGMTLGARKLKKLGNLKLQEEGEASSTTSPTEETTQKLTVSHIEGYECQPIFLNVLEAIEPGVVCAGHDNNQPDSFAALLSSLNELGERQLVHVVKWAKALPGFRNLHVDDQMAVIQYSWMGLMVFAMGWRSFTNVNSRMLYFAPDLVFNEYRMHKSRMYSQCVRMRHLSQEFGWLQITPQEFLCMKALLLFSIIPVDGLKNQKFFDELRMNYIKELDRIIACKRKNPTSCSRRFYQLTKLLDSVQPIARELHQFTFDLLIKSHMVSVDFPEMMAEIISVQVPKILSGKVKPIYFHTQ

[2] = test system: rGABA-gated Cl− channel; assay: GABA-Gated Cl Channel Antagonist Radioligand Binding Assay; parameters: species or system rat; conditions: 10 μM single point, [35S]-TBPS, cerebral cortex membrane homogenates
Description: GABA-gated C1 Chanel assays were performed at CEREP according to the following method. Membrane homogenates of cerebral cortex (120 μg protein) were incubated for 120 min at 22° C. with 3 nM […] in the absence or presence of the test compound in a buffer containing 50 mM Na2HPO4/KH2PO4 (pH 7.4) and 500 mM NaCl. Nonspecific binding was determined in the presence of 20 μM picrotoxinin. Following incubation, the samples were filtered rapidly under vacuum through glass fiber filters (GF/B, Packard) presoaked with 0.3% PEI and rinsed several times with ice-cold 50 mM Tris-HCl using a 96-sample cell harvester (Unifilter, Packard). The filters were dried then counted for radioactivity in a scintillation counter (Topcount, Packard) using a scintillation cocktail (Microscint 0, Packard). The results are expressed as a percent inhibition of the control radio ligand specific binding. The standard reference compound is picrotoxinin, which was tested in each experiment at several concentrations to obtain a competition curve from which its IC50 was calculated. In this assay, the following representative compounds disclosed herein had recorded activities at a 10 μM single point concentration in the GABA-gated Cl— Channel Binding Assay.

[3] = target: T2, F876L mutant Androgen Receptor (AR-F876L) (Homo sapiens (Human), UniProt P10275, F877L); assay: LNCaP-AR-F876L ANT reporter assay (antagonist mode); format: cell-based; conditions: for IC50 / LNCaP-AR-F876L ANT pIC50: antagonist mode, pIC50 = −Log10(IC50 in Molar); for IC50: read-out: LNCaP-AR-F876L ANT pIC50 (converted); for Emax: maximum % inhibition of R1881 control response over the tested concentration range, read-out: LNCaP-AR-F876L ANT MAX % Inh
T2 sequence (P10275 whole entry F877L): as the sequence (P10275 whole entry) above, with F877L counted along it

[4] = target: T1, wild-type Androgen Receptor (AR-wt); assay: LNCaP-AR-wt AG reporter assay (agonist mode); format: cell-based; conditions: for EC50: read-out: LNCaP-AR-wt AG pEC50 (converted); for Emax: maximum % stimulation (agonist response) over the tested concentration range, read-out: LNCaP-AR-wt AG MAX % Stim
[5] = target: T2, F876L mutant Androgen Receptor (AR-F876L); assay: LNCaP-AR-F876L AG reporter assay (agonist mode); format: cell-based; conditions: for EC50: read-out: LNCaP-AR-F876L AG pEC50 (converted); for Emax: maximum % stimulation (agonist response) over the tested concentration range, read-out: LNCaP-AR-F876L AG MAX % Stim
[6] = agonist mode, pEC50 = −Log10(EC50 in Molar)

IC50 [1] [µM]	Emax [1] [%]	rGABA-gated Cl− channel % inh @10 μM [2] [%]	IC50 [3] [µM]	Emax [3] [%]	EC50 [4, 6] [µM]	Emax [4] [%]	EC50 [5, 6] [µM]	Emax [5] [%]	LNCaP-AR-wt ANT pIC50 [1]	LNCaP-AR-F876L ANT pIC50 [3]	Structure (SMILES)	LNCaP-AR-wt AG pEC50 [4, 6]	LNCaP-AR-F876L AG pEC50 [5, 6]
0.427	99.3	20.4	0.257	99.9	> 15.1	0.1	> 15.1	0.1			CN1CCC(Oc2ccc(N3C(=S)N(c4cnc(C#N)c(C(F)F)c4)C(=O)C34CCC4)cc2)CC1 [Cpd 41, 3-(difluoromethyl)-5-[8-[4-[(1-methyl-4-piperidyl)oxy]phenyl]-5-oxo-7-thioxo-6,8-diazaspiro[3,4]octan-6-yl]pyridine-2-carbonitrile]		
	98.8	−0.5		101	> 15.1	0.7	> 15.1	0.1	7.12	7.43	N#Cc1ncc(N2C(=O)C3(CCC3)N(c3ccc(OC4CCNCC4)cc3)C2=S)cc1Cl [Cpd 44, 3-chloro-5-[5-oxo-8-[4-(4-piperidyloxy)phenyl]-7-thioxo-6,8-diazaspiro[3.4]octan-6-yl]pyridine-2-carbonitrile]		
	102	37.2		100	> 15.1	0	> 15.1	0.2	6.45	6.69	N#Cc1ncc(N2C(=O)C3(CCC3)N(c3ccc(CN4CCNCC4)cc3)C2=S)cc1C(F)(F)F [Cpd 48, 5-[5-oxo-8-[4-(piperazin-1-ylmethyl)phenyl]-7-thioxo-6,8-diazaspiro[3.4]octan-6-yl]-3-(trifluoromethyl)pyridine-2-carbonitrile]		
0.105	101	86.4	0.0562	99.5	> 15.1	0.3	> 15.1	0.4			CCOC(=O)N1CCC(CNC(=O)c2ccc(N3C(=S)N(c4cnc(C#N)c(C(F)(F)F)c4)C(=O)C34CCC4)cc2)CC1 [Cpd 49, ethyl 4-[[[4-[6-[6-cyano-5-(trifluoromethyl)-3-pyridyl]-5-oxo-7-thioxo-6,8-diazaspiro[3.4]octan-8-yl]benzoyl]amino]methyl]piperidine-1-carboxylate]		
0.0162	101	13.2	0.00871	98	> 15.1	0.1	> 15.1	1.4			N#Cc1ncc(N2C(=O)C3(CCC3)N(c3ccc(OC4CCN(CCO)CC4)cc3)C2=S)cc1Cl [Cpd 50, 3-chloro-5-[8-[4-[[1-(2-hydroxyethyl)-4-piperidyl]oxy]phenyl]-5-oxo-7-thioxo-6,8-diazaspiro[3.4]octan-6-yl]pyridine-2-carbonitrile]		
0.123	102	52.4	0.0457	100	> 15.1	0.4	> 15.1	0.1			CNC(=O)N1CCN(Cc2ccc(N3C(=S)N(c4cnc(C#N)c(C(F)(F)F)c4)C(=O)C34CCC4)cc2)CC1 [Cpd 53, 4-[[4-[6-[6-cyano-5-(trifluoromethyl)-3-pyridyl]-5-oxo-7-thioxo-6,8-diazaspiro[3.4]octan-8-yl]phenyl]methyl]-N-methyl-piperazine-1-carboxamide]		
0.0813	101	93.0	0.0933	97.1	> 15.1	1.3	> 15.1	0.7			N#Cc1ncc(N2C(=O)C3(CCC3)N(c3ccc(OCC4CC(F)(F)CN4)cc3)C2=S)cc1C(F)(F)F (stereo not drawn) [Cpd 54, 5-[8-[4-[(4,4-difluoropyrrolidin-2-yl)methoxy]phenyl]-5-oxo-7-thioxo-6,8-diazaspiro[3.4]octan-6-yl]-3-(trifluoromethyl)pyridine-2-carbonitrile]		
0.0724	104	100.0	0.0407	101	> 15.1	0.6	> 15.1	0.5			CCOC(=O)N1CCN(Cc2ccc(N3C(=S)N(c4cnc(C#N)c(C(F)(F)F)c4)C(=O)C34CCC4)cc2)CC1 [Cpd 55, Ethyl 4-[[4-[6-[6-cyano-5-(trifluoromethyl)-3-pyridyl]-5-oxo-7-thioxo-6,8-diazaspiro[3.4]octan-8-yl]phenyl]methyl]piperazine-1-carboxylate]		
0.0871	101	88.1	0.0933	98.1	> 15.1	0	> 15.1	1			CCOC(=O)N1CCN(c2ccc(N3C(=S)N(c4cnc(C#N)c(C(F)(F)F)c4)C(=O)C34CCC4)cc2)CC1 [Cpd 58, Ethyl 4-[4-[6-[6-cyano-5-(trifluoromethyl)-3-pyridyl]-5-oxo-7-thioxo-6,8-diazaspiro[3.4]octan-8-yl]phenyl]piperazine-1-carboxylate]		
0.135	102	16.0	0.0562	100	> 15.1	0	> 15.1	0.1			CN1CC(COc2ccc(N3C(=S)N(c4cnc(C#N)c(C(F)(F)F)c4)C(=O)C34CCC4)cc2)C1 [Cpd 59, 5-[8-[4-[(1-methylazetidin-3-yl)methoxy]phenyl]-5-oxo-7-thioxo-6,8-diazaspiro[3.4]octan-6-yl]-3-(trifluoromethyl)pyridine-2-carbonitrile]		
0.0229	99.2	91.5	0.00955	98.1	> 15.1	0.8	> 15.1	0.6			N#CCN1CCC(Oc2ccc(N3C(=S)N(c4cnc(C#N)c(C(F)(F)F)c4)C(=O)C34CCC4)cn2)CC1 [Cpd 60, 5-[8-[6-[[1-(cyanomethyl)-4-piperidyl]oxy]-3-pyridyl]-5-oxo-7-thioxo-6,8-diazaspiro[3.4]octan-6-yl]-3-(trifluoromethyl)pyridine-2-carbonitrile]		
0.0295	99.2	26.1	0.0363	98.8	> 15.1	0.4	> 15.1	0.3			COCCN1CCC(Oc2ccc(N3C(=S)N(c4cnc(C#N)c(C(F)(F)F)c4)C(=O)C34CCC4)cn2)CC1 [Cpd 61, 5-[8-[6-[[1-(2-methoxyethyl)-4-piperidyl]oxy]-3-pyridyl]-5-oxo-7-thioxo-6,8-diazaspiro[3.4]octan-6-yl]-3-(trifluoromethyl)pyridine-2-carbonitrile]		
0.038	100	61.0	0.0269	98.4	> 15.1	0.5	> 15.1	0.2			Cc1cc(N2C(=O)C3(CCC3)N(c3ccc(OC4CCN(CC(F)(F)F)CC4)nc3)C2=S)cnc1C#N [Cpd 62, 3-methyl-5-[5-oxo-7-thioxo-8-[6-[[1-(2,2,2-trifluoroethyl)-4-piperidyl]oxy]-3-pyridyl]-6,8-diazaspiro[3.4]octan-6-yl]pyridine-2-carbonitrile]		

Structure (SMILES)	IC50 [1] [µM]	Emax [1] [%]	rGABA-gated Cl− channel % inh @10 μM [2] [%]	IC50 [3] [µM]	Emax [3] [%]	EC50 [4, 6] [µM]	Emax [4] [%]	EC50 [5, 6] [µM]	Emax [5] [%]	LNCaP-AR-wt ANT pIC50 [1]	LNCaP-AR-F876L ANT pIC50 [3]	LNCaP-AR-wt AG pEC50 [4, 6]	LNCaP-AR-F876L AG pEC50 [5, 6]
CN1[C@@H]2CC[C@H]1C[C@H](Oc1ccc(N3C(=S)N(c4cnc(C#N)c(C(F)(F)F)c4)C(=O)C34CCC4)cc1)C2 [Cpd 52, 5-[8-[4-[[(1R,3s,5S)-8-methyl-8-azabicyclo[3.2.1]octan-3-yl]oxy]phenyl]-5-oxo-7-thioxo-6,8-diazaspiro[3.4]octan-6-yl]-3-(trifluoromethyl)pyridine-2-carbonitrile]		98.3	13.1	0.0437	98.9		2.8		0.8	6.76		<4.82	<4.82
